Assay results as given in ChEMBL document CHEMBL5126522, “In vitro and in vivo evaluation of 211At-labeled fibroblast activation protein inhibitor for glioma treatment” (Bioorg Med Chem, 2022).

Columns and labels:
[1] = Drug uptake in FAP-positive human U-87 MG cells assessed as binding rate measured after 10 mins; assay type: ADME, cell-based; settings: u-87mg atcc
[2] = Anti-tumor activity against human U-87 MG cells xenografted in BALB/c nude mouse assessed as reduction in tumor volume at 0.37 MBq, it measured on day 15 by electronic caliper analysis; assay type: functional, U-87MG ATCC
[3] = Drug uptake in FAP-positive human U-87 MG cells assessed as binding rate measured for 4 hrs; assay type: ADME, cell-based; settings: u-87mg atcc
[4] = Ratio of drug level in tumor to kidney in BALB/c nude mouse xenografted with human U-87 MG cells at 0.3 MBq, it measured after 2 hrs by gamma-counting analysis; assay type: ADME, tissue-based; settings: other
[5] = Stability of the compound in saline measured after 24 hrs by iTLC analysis; assay type: physicochemical; settings: read-out: Stability
[6] = Drug uptake in tumor of BALB/c nude mouse xenografted with human U-87 MG cells at 0.3 MBq, it measured after 2 hrs by gamma-counting analysis; assay type: ADME, tissue-based, Neoplasm; settings: other
[7] = Ratio of drug level in tumor to blood in BALB/c nude mouse xenografted with human U-87 MG cells at 0.3 MBq, it measured after 2 hrs by gamma-counting analysis; assay type: ADME, tissue-based; settings: other
[8] = Cytotoxicity against human U-87 MG cells assessed as cell viability at 12 kBq incubated in radioactive medium for 12 hrs followed by incubation in non-radioactive medium for 24 hrs by CCK8 assay; assay type: functional, U-87MG ATCC; settings: time 36 hrs
[9] = Drug uptake in liver of BALB/c nude mouse xenografted with human U-87 MG cells at 0.3 MBq, it measured after 0.5 hrs by gamma-counting analysis; assay type: ADME, tissue-based; settings: other
[10] = Drug uptake in thyroid of BALB/c nude mouse xenografted with human U-87 MG cells at 0.3 MBq, it by gamma-counting analysis; assay type: ADME, tissue-based, Thyroid gland; settings: other
[11] = Anti-tumor activity against human U-87 MG cells xenografted in BALB/c nude mouse assessed as reduction in tumor volume at 0.55 MBq, it measured on day 15 by electronic caliper analysis; assay type: functional, U-87MG ATCC; settings: time 15 day
[12] = Drug uptake in kidney of BALB/c nude mouse xenografted with human U-87 MG cells at 0.3 MBq, iv measured after 0.5 hrs by gamma-counting analysis; assay type: ADME, organism-based; settings: in vivo
[13] = Ratio of drug level in tumor to liver in BALB/c nude mouse xenografted with human U-87 MG cells at 0.3 MBq, it measured after 2 hrs by gamma-counting analysis; assay type: ADME, tissue-based; settings: other
[14] = Anti-tumor activity against human U-87 MG cells xenografted in BALB/c nude mouse assessed as median survival time at 0.37 MBq, it (reference value: 16.5 days); assay type: functional, U-87MG ATCC
[15] = Toxicity in BALB/c nude mouse xenografted with human U-87 MG cells assessed as kidney morphological changes at 0.55 MBq, it measured after 2 to 12 days by Hematoxylin-Eosin staining based analysis; assay type: tissue-based; settings: other, time 2-12 day
[16] = Induction of cell cycle arrest in human U-87 MG cells assessed as proportion of cells at G2/M phase at 23 kBq incubated in radioactive medium for 12 hrs followed by incubation in non-radioactive medium for 24 hrs by PI staining based flow cytometry (reference value: 15.7 +/-3.61%); assay type: functional, U-87MG ATCC; settings: time 36 hrs
[17] = Drug uptake in liver of BALB/c nude mouse xenografted with human U-87 MG cells at 0.3 MBq, iv measured after 0.5 hrs by gamma-counting analysis; assay type: ADME, organism-based; settings: in vivo
[18] = Drug uptake in FAP-negative human MCF7 cells assessed as binding rate measured after 10 to 240 mins; assay type: ADME, cell-based; settings: time 10-240 min
[19] = Inhibition of colony formation in human U-87 MG cells assessed as survival fraction at 18.5 kBq incubated in radioactive medium for 12 hrs followed by incubation in non-radioactive medium for 14 days by crystal violet staining based analysis; assay type: functional, U-87MG ATCC
[20] = Drug uptake in tumor of BALB/c nude mouse xenografted with human U-87 MG cells at 0.3 MBq, iv measured after 0.5 hrs by gamma-counting analysis; assay type: ADME, organism-based, Neoplasm; settings: in vivo
[21] = Inhibition of colony formation in human U-87 MG cells assessed as survival fraction at 4.6 kBq incubated in radioactive medium for 12 hrs followed by incubation in non-radioactive medium for 14 days by crystal violet staining based analysis; assay type: functional, U-87MG ATCC; settings: time 852 hrs
[22] = Drug uptake in kidney of BALB/c nude mouse xenografted with human U-87 MG cells at 0.3 MBq, it measured after 0.5 hrs by gamma-counting analysis; assay type: ADME, tissue-based; settings: other
[23] = Drug uptake in tumor of BALB/c nude mouse xenografted with human U-87 MG cells at 0.3 MBq, it measured after 6 hrs by gamma-counting analysis; assay type: ADME, Neoplasm; settings: other
[24] = Drug uptake in thyroid of BALB/c nude mouse xenografted with human U-87 MG cells at 0.3 MBq, iv by gamma-counting analysis; assay type: ADME, organism-based, Thyroid gland; settings: in vivo
[25] = Induction of cell cycle arrest in human U-87 MG cells assessed as proportion of cells at G0/G1 phase at 23 kBq incubated in radioactive medium for 12 hrs followed by incubation in non-radioactive medium for 24 hrs by PI staining based flow cytometry (reference value: 69.9 +/-3.76%); assay type: functional, U-87MG ATCC; settings: time 36 hrs
[26] = Drug uptake in tumor of BALB/c nude mouse xenografted with human U-87 MG cells at 0.3 MBq, iv measured after 6 hrs by gamma-counting analysis; assay type: ADME, organism-based, Neoplasm; settings: in vivo
[27] = Drug uptake in tumor of BALB/c nude mouse xenografted with human U-87 MG cells at 0.3 MBq, iv measured after 2 hrs by gamma-counting analysis; assay type: ADME, organism-based, Neoplasm; settings: in vivo
[28] = Drug uptake in FAP-positive human U-87 MG cells assessed as binding rate pretreated with excess standard products measured after 60 mins; assay type: ADME, cell-based; settings: u-87mg atcc, 1 h
[29] = Antitumor activity against human U-87 MG cells xenografted in BALB/c nude mouse assessed as Ki67 expression in tumor at 0.55 MBq, it measured after 2 days by immunohistochemical analysis (reference value: 49.8 +/-7.67%); assay type: functional, U-87MG ATCC; settings: time 2 day
[30] = Toxicity in BALB/c nude mouse xenografted with human U-87 MG cells assessed as liver morphological changes at 0.55 MBq, it measured after 2 to 12 days by Hematoxylin-Eosin staining based analysis; assay type: tissue-based; settings: other, time 2-12 day
[31] = Inhibition of colony formation in human U-87 MG cells assessed as survival fraction at 9.2 kBq incubated in radioactive medium for 12 hrs followed by incubation in non-radioactive medium for 14 days by crystal violet staining based analysis; assay type: functional, U-87MG ATCC; settings: time 852 hrs
[32] = Anti-tumor activity against human U-87 MG cells xenografted in BALB/c nude mouse assessed as reduction in tumor volume at 0.18 MBq, it measured on day 15 by electronic caliper analysis; assay type: functional, U-87MG ATCC
[33] = Renal toxicity BALB/c nude mouse xenografted with human U-87 MG cells assessed as change in BUN level at 0.55 MBq, it measured after 2 to 12 days; settings: other, time 2-12 day
[34] = Drug uptake in stomach of BALB/c nude mouse xenografted with human U-87 MG cells at 0.3 MBq, iv by gamma-counting analysis; assay type: ADME, organism-based; settings: in vivo
[35] = Anti-tumor activity against human U-87 MG cells xenografted in BALB/c nude mouse assessed as median survival time at 0.18 MBq, it (reference value: 16.5 days); assay type: functional, U-87MG ATCC
[36] = Toxicity in BALB/c nude mouse xenografted with human U-87 MG cells assessed as stomach morphological changes at 0.55 MBq, it measured after 2 to 12 days by Hematoxylin-Eosin staining based analysis; assay type: tissue-based; settings: other, time 2-12 day
[37] = Drug uptake in FAP-positive human U-87 MG cells assessed as binding rate measured after 60 mins; assay type: ADME, cell-based; settings: u-87mg atcc, 1 h
[38] = Antitumor activity against human U-87 MG cells xenografted in BALB/c nude mouse assessed as proportion of TUNEL-positive cells in tumor at 0.55 MBq, it measured after 2 days by immunohistochemical analysis (reference value: 3.54 +/-2.71%); assay type: functional, U-87MG ATCC; settings: time 2 day
[39] = Ratio of drug level in tumor to muscle in BALB/c nude mouse xenografted with human U-87 MG cells at 0.3 MBq, it measured after 2 hrs by gamma-counting analysis; assay type: ADME, tissue-based; settings: other
[40] = Anti-tumor activity against human U-87 MG cells xenografted in BALB/c nude mouse assessed as median survival time at 0.55 MBq, it (reference value: 16.5 days); assay type: functional, U-87MG ATCC
[41] = Toxicity in BALB/c nude mouse xenografted with human U-87 MG cells assessed as change in body weight at 0.18 to 0.55 MBq, it; settings: other, dose 0.18-0.55 MBq
[42] = Hepatotoxicity BALB/c nude mouse xenografted with human U-87 MG cells assessed as change in serum ALT level at 0.55 MBq, it measured after 2 to 12 days; assay type: toxicity; settings: other, time 2-12 day
[43] = Drug uptake in tumor of BALB/c nude mouse xenografted with human U-87 MG cells at 0.3 MBq, it measured after 0.5 hrs by gamma-counting analysis; assay type: ADME, tissue-based, Neoplasm; settings: other
[44] = Drug uptake in stomach of BALB/c nude mouse xenografted with human U-87 MG cells at 0.3 MBq, it by gamma-counting analysis; assay type: ADME; settings: other
[45] = Stability of the compound in serum (unknown origin) measured after 24 hrs by iTLC analysis; assay type: ADME, cell-free; settings: read-out: Stability
[46] = Antitumor activity against human U-87 MG cells xenografted in BALB/c nude mouse assessed as proportion of TUNEL-positive cells in tumor at 0.55 MBq, it measured after 12 days by immunohistochemical analysis (reference value: 3.31 +/-1.13%); assay type: functional, U-87MG ATCC; settings: time 12 day
[47] = Toxicity in BALB/c nude mouse xenografted with human U-87 MG cells assessed as thyroid morphological changes at 0.55 MBq, it measured after 2 to 12 days by Hematoxylin-Eosin staining based analysis; settings: other, time 2-12 day
[48] = Cytotoxicity against human U-87 MG cells assessed as cell viability at 92 kBq incubated in radioactive medium for 12 hrs followed by incubation in non-radioactive medium for 24 hrs by CCK8 assay; assay type: functional, U-87MG ATCC; settings: time 36 hrs

For `N#C[C@@H]1CC(F)(F)CN1C(=O)CNC(=O)c1ccnc2ccc(OCCCN3CCN(C(=O)c4ccc([211At])cc4)CC3)cc12`, the Drug uptake [1] was 14.4%, the “inhibition (INH)” value [2] was 70% and the Drug uptake [3] was “Active”. The Ratio [4] was 6.39, the remaining at 24 h [5] was 94.7% and the Drug uptake [6] was 19.24 % ID/g. For the same compound, the Ratio [7] was 14.17, the Activity [8] was 61.9% and the Drug uptake [9] was “Active”. For the same compound, the Drug uptake [10] was “Active”, the “inhibition (INH)” value [11] was 76% and the Drug uptake [12] was “Active”. For the same compound, the Ratio [13] was 11.13, the Survival [14] was 30 days and the Activity [15] was “Non-Toxic”. For the same compound, the Activity [16] was 62.7%, the Drug uptake [17] was “Active” and the Drug uptake [18] was 4.7%. For the same compound, the Activity [19] was 1.97%, the Drug uptake [20] was 4.04 % ID/g and the Activity [21] was 28.1%. For the same compound, the Drug uptake [22] was “Active”, the Drug uptake [23] was 11.47 % ID/g and the Drug uptake [24] was “Active”. For the same compound, the Activity [25] was 21.9%, the Drug uptake [26] was 1.86 % ID/g and the Drug uptake [27] was 3.12 % ID/g. For the same compound, the Drug uptake [28] was 9.3%, the Activity [29] was 17.9% and the Activity [30] was “Non-Toxic”. For the same compound, the Activity [31] was 8.1%, the “inhibition (INH)” value [32] was 55% and the Activity [33] was “Non-Toxic”. For the same compound, the Drug uptake [34] was “Active”, the Survival [35] was 24 days and the Activity [36] was “Non-Toxic”. For the same compound, the Drug uptake [37] was 24.9%, the Activity [38] was 28.7% and the Ratio [39] was 45.75. The Survival [40] was 33 days, the Activity [41] was “Non-Toxic” and the Activity [42] was “Non-Toxic”. For the same compound, the Drug uptake [43] was 132.5 % ID/g, the Drug uptake [44] was “Active” and the remaining at 24 h [45] was 85.6%. For the same compound, the Activity [46] was 28.5%, the Activity [47] was “Non-Toxic” and the Activity [48] was 42.1%.
